{
  "source": "ChEMBL document CHEMBL1154592",
  "about": "“Triazine and pyrimidine based ROCK inhibitors with efficacy in spontaneous hypertensive rat model” (Bioorg Med Chem Lett, 2009)",
  "key": {"[1]": {"biological_target": "Rho-associated protein kinase 1 (Homo sapiens, UniProt Q13464)", "sequence (Q13464 whole entry)": "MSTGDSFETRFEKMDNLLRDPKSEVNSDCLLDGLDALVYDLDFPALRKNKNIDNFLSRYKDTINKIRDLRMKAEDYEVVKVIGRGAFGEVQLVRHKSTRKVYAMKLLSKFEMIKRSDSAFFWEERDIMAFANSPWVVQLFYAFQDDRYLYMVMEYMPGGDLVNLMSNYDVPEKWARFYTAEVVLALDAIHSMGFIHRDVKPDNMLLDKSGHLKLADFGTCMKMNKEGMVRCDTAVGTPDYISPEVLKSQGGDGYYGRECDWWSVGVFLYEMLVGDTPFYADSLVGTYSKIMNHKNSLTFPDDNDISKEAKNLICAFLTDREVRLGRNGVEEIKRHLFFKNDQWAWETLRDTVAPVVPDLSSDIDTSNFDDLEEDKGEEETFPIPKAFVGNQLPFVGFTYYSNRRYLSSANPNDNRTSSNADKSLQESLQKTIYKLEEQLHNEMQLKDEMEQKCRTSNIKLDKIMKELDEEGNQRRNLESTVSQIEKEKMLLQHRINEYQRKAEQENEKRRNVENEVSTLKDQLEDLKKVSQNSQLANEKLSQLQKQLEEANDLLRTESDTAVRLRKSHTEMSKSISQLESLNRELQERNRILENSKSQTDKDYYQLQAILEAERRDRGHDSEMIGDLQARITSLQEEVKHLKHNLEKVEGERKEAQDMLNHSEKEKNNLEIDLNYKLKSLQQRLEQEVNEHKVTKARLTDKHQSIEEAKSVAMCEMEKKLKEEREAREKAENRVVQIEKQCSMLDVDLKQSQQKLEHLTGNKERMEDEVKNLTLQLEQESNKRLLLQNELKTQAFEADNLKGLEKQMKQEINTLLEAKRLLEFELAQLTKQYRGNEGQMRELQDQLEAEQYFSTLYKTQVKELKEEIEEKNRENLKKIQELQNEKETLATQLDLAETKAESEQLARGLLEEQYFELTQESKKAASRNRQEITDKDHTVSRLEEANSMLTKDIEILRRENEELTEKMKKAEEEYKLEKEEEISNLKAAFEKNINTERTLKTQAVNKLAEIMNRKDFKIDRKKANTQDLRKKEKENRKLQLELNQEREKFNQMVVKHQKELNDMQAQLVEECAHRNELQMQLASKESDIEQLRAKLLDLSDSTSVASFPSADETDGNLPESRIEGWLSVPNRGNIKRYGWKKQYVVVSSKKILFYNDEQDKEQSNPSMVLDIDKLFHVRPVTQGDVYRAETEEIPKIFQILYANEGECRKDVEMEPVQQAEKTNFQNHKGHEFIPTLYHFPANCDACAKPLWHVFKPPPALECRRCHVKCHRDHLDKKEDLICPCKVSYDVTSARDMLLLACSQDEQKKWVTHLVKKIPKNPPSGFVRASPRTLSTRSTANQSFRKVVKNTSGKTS", "assay": "Inhibition of ROCK1 by IMAP assay"}, "[2]": {"biological_target": "Insulin receptor (Homo sapiens) (UniProt P06213)", "assay": "Inhibition of IR at 2 uM"}, "[3]": {"biological_target": "Serine/threonine-protein kinase PAK 2 (Homo sapiens) (UniProt Q13177)", "assay": "Inhibition of PAK2 at 2 uM"}, "[4]": {"assay": "Inhibition of CK2 at 2 uM"}, "[5]": {"biological_target": "Tyrosine-protein kinase CSK (Homo sapiens) (UniProt P41240)", "sequence (P41240 2-450 limits assumed)": "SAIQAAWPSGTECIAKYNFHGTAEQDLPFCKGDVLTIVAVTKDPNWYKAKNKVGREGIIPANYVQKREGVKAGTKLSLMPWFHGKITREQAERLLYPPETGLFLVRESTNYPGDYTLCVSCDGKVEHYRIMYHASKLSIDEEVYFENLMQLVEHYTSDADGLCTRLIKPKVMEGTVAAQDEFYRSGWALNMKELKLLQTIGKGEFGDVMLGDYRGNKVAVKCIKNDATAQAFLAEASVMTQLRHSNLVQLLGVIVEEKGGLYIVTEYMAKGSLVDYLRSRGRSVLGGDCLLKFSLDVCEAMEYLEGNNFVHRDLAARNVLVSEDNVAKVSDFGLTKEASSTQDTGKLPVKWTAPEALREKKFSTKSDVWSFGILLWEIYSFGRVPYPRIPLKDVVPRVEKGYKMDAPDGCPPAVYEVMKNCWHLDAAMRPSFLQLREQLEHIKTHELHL", "assay": "Inhibition of CSK at 2 uM"}, "[6]": {"biological_target": "BDNF/NT-3 growth factors receptor (Homo sapiens) (UniProt Q16620)", "assay": "Inhibition of TRKbeta at 2 uM"}, "[7]": {"biological_target": "Tyrosine-protein kinase Lck (Homo sapiens) (UniProt P06239)", "assay": "Inhibition of LCK at 2 uM"}, "[8]": {"assay": "Inhibition of MAPK at 2 uM"}, "[9]": {"biological_target": "Serine/threonine-protein kinase Nek2 (Homo sapiens) (UniProt P51955)", "assay": "Inhibition of NEK2 at 2 uM"}, "[10]": {"biological_target": "Tyrosine-protein kinase ZAP-70 (Homo sapiens) (UniProt P43403)", "sequence (P43403 whole entry)": "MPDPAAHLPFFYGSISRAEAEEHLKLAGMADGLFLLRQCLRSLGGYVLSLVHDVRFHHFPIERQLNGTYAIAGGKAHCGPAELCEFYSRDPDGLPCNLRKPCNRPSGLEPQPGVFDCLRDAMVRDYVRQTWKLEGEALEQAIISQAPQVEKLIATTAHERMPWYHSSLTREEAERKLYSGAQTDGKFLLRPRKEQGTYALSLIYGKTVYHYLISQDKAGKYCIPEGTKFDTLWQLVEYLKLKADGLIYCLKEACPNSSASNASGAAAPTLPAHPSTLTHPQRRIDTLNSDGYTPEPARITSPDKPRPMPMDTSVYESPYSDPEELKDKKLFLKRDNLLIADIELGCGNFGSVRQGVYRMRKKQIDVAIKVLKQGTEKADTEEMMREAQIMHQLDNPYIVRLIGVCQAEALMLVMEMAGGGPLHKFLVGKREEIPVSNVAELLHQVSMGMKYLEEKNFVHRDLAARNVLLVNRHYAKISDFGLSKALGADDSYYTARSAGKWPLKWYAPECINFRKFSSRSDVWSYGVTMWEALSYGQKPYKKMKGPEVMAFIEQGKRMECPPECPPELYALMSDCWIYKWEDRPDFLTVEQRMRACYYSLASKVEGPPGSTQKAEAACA", "assay": "Inhibition of Zap70 at 2 uM"}, "[11]": {"biological_target": "Serine/threonine-protein kinase Chk1 (Homo sapiens) (UniProt O14757)", "assay": "Inhibition of CHK1 at 2 uM"}, "[12]": {"biological_target": "Dual specificity mitogen-activated protein kinase kinase 1 (Homo sapiens) (UniProt Q02750)", "sequence (Q02750 whole entry)": "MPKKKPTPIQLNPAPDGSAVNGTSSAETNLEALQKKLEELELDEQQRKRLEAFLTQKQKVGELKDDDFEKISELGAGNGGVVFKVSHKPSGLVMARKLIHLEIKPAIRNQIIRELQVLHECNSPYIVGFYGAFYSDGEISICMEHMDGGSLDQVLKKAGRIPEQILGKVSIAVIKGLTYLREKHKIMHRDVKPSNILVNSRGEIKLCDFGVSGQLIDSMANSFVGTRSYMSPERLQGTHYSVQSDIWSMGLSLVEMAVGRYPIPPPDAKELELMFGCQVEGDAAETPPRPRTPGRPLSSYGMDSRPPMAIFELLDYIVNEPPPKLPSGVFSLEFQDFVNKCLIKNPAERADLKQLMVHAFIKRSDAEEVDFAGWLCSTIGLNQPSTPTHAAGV", "assay": "Inhibition of MEK1 at 2 uM"}, "[13]": {"biological_target": "Casein kinase I isoform delta (Homo sapiens) (UniProt P48730)", "assay": "Inhibition of CK1delta at 2 uM"}, "[14]": {"biological_target": "Calcium/calmodulin-dependent protein kinase type IV (Homo sapiens) (UniProt Q16566)", "sequence (Q16566 whole entry)": "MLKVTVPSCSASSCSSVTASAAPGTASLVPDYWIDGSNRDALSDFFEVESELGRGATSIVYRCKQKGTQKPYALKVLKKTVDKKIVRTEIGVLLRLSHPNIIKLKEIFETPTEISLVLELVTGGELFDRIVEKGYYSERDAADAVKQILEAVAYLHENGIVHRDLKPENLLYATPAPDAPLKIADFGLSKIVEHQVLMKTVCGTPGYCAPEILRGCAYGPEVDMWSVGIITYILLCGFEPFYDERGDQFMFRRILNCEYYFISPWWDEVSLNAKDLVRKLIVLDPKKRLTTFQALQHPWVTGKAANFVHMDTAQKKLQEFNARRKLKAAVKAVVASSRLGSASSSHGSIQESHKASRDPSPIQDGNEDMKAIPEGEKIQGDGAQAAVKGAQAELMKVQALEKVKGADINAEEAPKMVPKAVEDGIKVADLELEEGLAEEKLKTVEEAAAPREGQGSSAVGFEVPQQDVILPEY", "assay": "Inhibition of CaMK4 at 2 uM"}, "[15]": {"biological_target": "MAP kinase-activated protein kinase 2 (Homo sapiens) (UniProt P49137)", "sequence (P49137 whole entry, looked up)": "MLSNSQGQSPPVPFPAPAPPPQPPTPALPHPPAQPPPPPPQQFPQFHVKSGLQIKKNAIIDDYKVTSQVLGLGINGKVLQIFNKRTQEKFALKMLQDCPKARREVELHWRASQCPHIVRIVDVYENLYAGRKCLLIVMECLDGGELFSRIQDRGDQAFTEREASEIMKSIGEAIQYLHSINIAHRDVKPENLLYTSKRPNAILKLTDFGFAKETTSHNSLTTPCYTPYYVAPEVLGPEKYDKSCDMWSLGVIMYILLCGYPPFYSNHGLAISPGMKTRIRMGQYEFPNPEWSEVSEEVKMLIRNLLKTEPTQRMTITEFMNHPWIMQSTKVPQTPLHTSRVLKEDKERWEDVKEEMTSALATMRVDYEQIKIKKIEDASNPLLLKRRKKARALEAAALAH", "assay": "Inhibition of MAPK2 at 2 uM"}, "[16]": {"test_system": "Rattus norvegicus", "assay": "Decrease in mean arterial blood pressure in spontaneous hypertensive rat model at 3 mg/kg, sc", "type": "functional, organism-based", "set-up": "dose 3 mg/kg", "settings": "Artery"}, "[17]": {"biological_target": "Epidermal growth factor receptor (Homo sapiens) (UniProt P00533)", "assay": "Inhibition of EGFR at 2 uM"}, "[18]": {"biological_target": "Cyclin-dependent kinase 2 (Homo sapiens) (UniProt P24941)", "assay": "Inhibition of CDK2 at 2 uM"}, "[19]": {"test_system": "Rattus norvegicus", "assay": "Decrease in mean arterial blood pressure in spontaneous hypertensive rat model at 10 mg/kg, sc", "type": "functional, organism-based", "set-up": "dose 10 mg/kg", "settings": "Artery"}, "[20]": {"biological_target": "Proto-oncogene tyrosine-protein kinase Src (Homo sapiens) (UniProt P12931)", "assay": "Inhibition of cSRC at 2 uM"}, "[21]": {"biological_target": "Aurora kinase A (Homo sapiens) (UniProt O14965)", "assay": "Inhibition of AuroraA at 2 uM"}, "[22]": {"biological_target": "Hepatocyte growth factor receptor (Homo sapiens) (UniProt P08581)", "sequence (P08581 whole entry)": "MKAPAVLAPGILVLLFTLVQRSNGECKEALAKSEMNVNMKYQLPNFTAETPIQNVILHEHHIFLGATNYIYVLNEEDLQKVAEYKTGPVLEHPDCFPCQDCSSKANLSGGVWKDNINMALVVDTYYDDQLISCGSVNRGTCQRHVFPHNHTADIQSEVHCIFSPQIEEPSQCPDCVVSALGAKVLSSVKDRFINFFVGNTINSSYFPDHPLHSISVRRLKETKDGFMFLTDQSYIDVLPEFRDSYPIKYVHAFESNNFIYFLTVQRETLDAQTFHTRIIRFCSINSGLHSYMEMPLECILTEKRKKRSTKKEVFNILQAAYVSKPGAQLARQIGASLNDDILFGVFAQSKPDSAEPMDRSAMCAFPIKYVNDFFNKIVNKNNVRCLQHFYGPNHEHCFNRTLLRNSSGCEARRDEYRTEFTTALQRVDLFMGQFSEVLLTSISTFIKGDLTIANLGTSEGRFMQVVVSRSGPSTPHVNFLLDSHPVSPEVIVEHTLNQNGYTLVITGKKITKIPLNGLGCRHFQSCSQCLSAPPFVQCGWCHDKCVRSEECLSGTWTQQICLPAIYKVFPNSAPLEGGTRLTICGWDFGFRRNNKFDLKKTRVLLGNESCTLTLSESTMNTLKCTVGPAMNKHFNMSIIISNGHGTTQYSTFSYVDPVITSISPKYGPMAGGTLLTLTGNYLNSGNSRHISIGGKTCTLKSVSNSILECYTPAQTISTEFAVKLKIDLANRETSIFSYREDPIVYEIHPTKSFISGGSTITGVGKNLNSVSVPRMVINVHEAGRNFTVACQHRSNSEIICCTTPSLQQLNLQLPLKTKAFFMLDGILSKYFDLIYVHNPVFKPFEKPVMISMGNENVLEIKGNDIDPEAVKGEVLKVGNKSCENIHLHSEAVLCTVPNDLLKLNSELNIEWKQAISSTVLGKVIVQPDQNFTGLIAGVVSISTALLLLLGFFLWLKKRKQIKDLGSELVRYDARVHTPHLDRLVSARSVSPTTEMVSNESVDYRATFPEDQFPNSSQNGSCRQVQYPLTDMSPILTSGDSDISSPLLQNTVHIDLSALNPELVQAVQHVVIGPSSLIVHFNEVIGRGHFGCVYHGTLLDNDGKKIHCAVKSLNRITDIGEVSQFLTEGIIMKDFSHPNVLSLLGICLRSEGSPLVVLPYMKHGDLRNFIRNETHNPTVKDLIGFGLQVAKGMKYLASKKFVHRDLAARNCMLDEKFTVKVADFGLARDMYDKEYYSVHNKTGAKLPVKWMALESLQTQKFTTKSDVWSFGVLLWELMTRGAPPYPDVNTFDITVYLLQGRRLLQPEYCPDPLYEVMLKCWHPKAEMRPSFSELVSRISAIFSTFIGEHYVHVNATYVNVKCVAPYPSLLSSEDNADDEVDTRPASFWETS", "assay": "Inhibition of Met at 2 uM"}, "[23]": {"biological_target": "RAF proto-oncogene serine/threonine-protein kinase (Homo sapiens) (UniProt P04049)", "assay": "Inhibition of cRAF at 2 uM"}, "[24]": {"biological_target": "Ribosomal protein S6 kinase alpha-3 (Homo sapiens) (UniProt P51812)", "assay": "Inhibition of Rsk2 at 2 uM"}, "[25]": {"biological_target": "Platelet-derived growth factor receptor beta (Homo sapiens) (UniProt P09619)", "assay": "Inhibition of PDGFRbeta at 2 uM"}, "[26]": {"biological_target": "Serine/threonine-protein kinase STK11 (Homo sapiens) (UniProt Q15831)", "assay": "Inhibition of LKB1 at 2 uM"}, "[27]": {"biological_target": "Glycogen synthase kinase-3 beta (Homo sapiens) (UniProt P49841)", "assay": "Inhibition of GSK3-beta at 2 uM"}, "[28]": {"test_system": "Rattus norvegicus", "assay": "Decrease in mean arterial blood pressure in spontaneous hypertensive rat model at 30 mg/kg, sc", "type": "functional, organism-based", "set-up": "dose 30 mg/kg", "settings": "Artery"}},
  "note": "The source made the active and inactive calls. The calls are words filed in the database; no cut-off is given here.",
  "data": [
    {"compound": "c1ccc2c(c1)CCC(Nc1nc(Nc3ccncc3)nc(N3CCNCC3)n1)C2", "note": "(stereo not drawn)", "values": [
      {"measurement": "IC50", "setting": "[1]", "value": 23, "unit": "nM"}
    ]},
    {"compound": "c1ccc2c(c1)CC(Nc1nc(Nc3ccncc3)nc(N3CCCCC3)n1)C2", "values": [
      {"measurement": "IC50", "setting": "[1]", "value": 8300, "unit": "nM"}
    ]},
    {"compound": "c1ccc2c(c1)CC(Nc1nc(Nc3ccncc3)nc(N3CCNCC3)n1)C2", "values": [
      {"measurement": "inhibition", "setting": "[2]", "value": "< 50", "unit": "%"},
      {"measurement": "inhibition", "setting": "[3]", "value": "< 50", "unit": "%"},
      {"measurement": "inhibition", "setting": "[4]", "value": "< 50", "unit": "%"},
      {"measurement": "inhibition", "setting": "[5]", "value": "< 50", "unit": "%"},
      {"measurement": "inhibition", "setting": "[6]", "value": "< 50", "unit": "%"},
      {"measurement": "inhibition", "setting": "[7]", "value": "< 50", "unit": "%"},
      {"measurement": "inhibition", "setting": "[8]", "value": "< 50", "unit": "%"},
      {"measurement": "inhibition", "setting": "[9]", "value": "< 50", "unit": "%"},
      {"measurement": "inhibition", "setting": "[10]", "value": "< 50", "unit": "%"},
      {"measurement": "inhibition", "setting": "[11]", "value": "< 50", "unit": "%"},
      {"measurement": "inhibition", "setting": "[12]", "value": "< 50", "unit": "%"},
      {"measurement": "inhibition", "setting": "[13]", "value": "< 50", "unit": "%"},
      {"measurement": "inhibition", "setting": "[14]", "value": "< 50", "unit": "%"},
      {"measurement": "inhibition", "setting": "[15]", "value": "< 50", "unit": "%"},
      {"measurement": "Activity", "setting": "[16]", "value": "Active"},
      {"measurement": "IC50", "setting": "[1]", "value": 6, "unit": "nM"},
      {"measurement": "inhibition", "setting": "[17]", "value": "< 50", "unit": "%"},
      {"measurement": "inhibition", "setting": "[18]", "value": "< 50", "unit": "%"},
      {"measurement": "Activity", "setting": "[19]", "value": "Active"},
      {"measurement": "inhibition", "setting": "[20]", "value": "< 50", "unit": "%"},
      {"measurement": "inhibition", "setting": "[21]", "value": "< 50", "unit": "%"},
      {"measurement": "inhibition", "setting": "[22]", "value": "< 50", "unit": "%"},
      {"measurement": "inhibition", "setting": "[23]", "value": "< 50", "unit": "%"},
      {"measurement": "inhibition", "setting": "[24]", "value": "< 50", "unit": "%"},
      {"measurement": "inhibition", "setting": "[25]", "value": "< 50", "unit": "%"},
      {"measurement": "inhibition", "setting": "[26]", "value": "< 50", "unit": "%"},
      {"measurement": "inhibition", "setting": "[27]", "value": "< 50", "unit": "%"}
    ]},
    {"compound": "c1ccc(Nc2nc(NC3Cc4ccccc4C3)nc(N3CCNCC3)n2)cc1", "values": [
      {"measurement": "IC50", "setting": "[1]", "value": 7400, "unit": "nM"}
    ]},
    {"compound": "c1ccc2c(c1)CC(Nc1nc(Nc3ccncc3)nc(N3CCCNCC3)n1)C2", "values": [
      {"measurement": "IC50", "setting": "[1]", "value": 11, "unit": "nM"}
    ]},
    {"compound": "c1ccc(CNc2nc(Nc3ccncc3)nc(N3CCNCC3)n2)cc1", "values": [
      {"measurement": "IC50", "setting": "[1]", "value": 400, "unit": "nM"}
    ]},
    {"compound": "c1ccc2c(c1)CC(Oc1nc(Nc3ccncc3)nc(N3CCNCC3)n1)C2", "values": [
      {"measurement": "IC50", "setting": "[1]", "value": 8, "unit": "nM"}
    ]},
    {"compound": "C[C@H]1CNCCN1c1nc(Nc2ccncc2)nc(NC2Cc3ccccc3C2)n1", "values": [
      {"measurement": "IC50", "setting": "[1]", "value": 87, "unit": "nM"}
    ]},
    {"compound": "C[C@@H]1CN(c2nc(Nc3ccncc3)nc(NC3Cc4ccccc4C3)n2)CCN1", "values": [
      {"measurement": "IC50", "setting": "[1]", "value": 8, "unit": "nM"}
    ]},
    {"compound": "c1cc(Nc2nc(NC3CCCC3)nc(N3CCNCC3)n2)ccn1", "values": [
      {"measurement": "IC50", "setting": "[1]", "value": 890, "unit": "nM"}
    ]},
    {"compound": "c1cncc(Nc2nc(NC3Cc4ccccc4C3)nc(N3CCNCC3)n2)c1", "values": [
      {"measurement": "IC50", "setting": "[1]", "value": 8400, "unit": "nM"}
    ]},
    {"compound": "c1ccc2c(c1)CC(Nc1cc(Nc3ccncc3)nc(N3CCNCC3)n1)C2", "values": [
      {"measurement": "IC50", "setting": "[1]", "value": 2, "unit": "nM"}
    ]},
    {"compound": "c1ccc(CCNc2nc(Nc3ccncc3)nc(N3CCNCC3)n2)cc1", "values": [
      {"measurement": "IC50", "setting": "[1]", "value": 326, "unit": "nM"}
    ]},
    {"compound": "c1ccc(Nc2nc(NC3Cc4ccccc4C3)nc(N3CCNCC3)n2)nc1", "values": [
      {"measurement": "IC50", "setting": "[1]", "value": 1000, "unit": "nM"}
    ]},
    {"compound": "CN1CCN(c2nc(Nc3ccncc3)nc(NC3Cc4ccccc4C3)n2)CC1", "values": [
      {"measurement": "IC50", "setting": "[1]", "value": 305, "unit": "nM"}
    ]},
    {"compound": "C[C@@H]1CNCCN1c1nc(Nc2ccncc2)nc(NC2Cc3ccccc3C2)n1", "values": [
      {"measurement": "IC50", "setting": "[1]", "value": 118, "unit": "nM"}
    ]},
    {"compound": "CNCCN(C)c1nc(Nc2ccncc2)nc(NC2Cc3ccccc3C2)n1", "values": [
      {"measurement": "IC50", "setting": "[1]", "value": 81, "unit": "nM"}
    ]},
    {"compound": "c1ccc2c(c1)CC(Nc1cc(N3CCNCC3)nc(Nc3ccncc3)n1)C2", "values": [
      {"measurement": "IC50", "setting": "[1]", "value": 14, "unit": "nM"}
    ]},
    {"compound": "C[C@@H](N)[C@H]1CC[C@H](C(=O)Nc2ccncc2)CC1", "values": [
      {"measurement": "Activity", "setting": "[28]", "value": "Active"}
    ]},
    {"compound": "c1ccc2c(c1)CC(Nc1nc(Nc3ccncc3)cc(N3CCNCC3)n1)C2", "values": [
      {"measurement": "IC50", "setting": "[1]", "value": 1200, "unit": "nM"}
    ]},
    {"compound": "c1ccc2c(c1)CCC2Nc1nc(Nc2ccncc2)nc(N2CCNCC2)n1", "note": "(stereo not drawn)", "values": [
      {"measurement": "IC50", "setting": "[1]", "value": 185, "unit": "nM"}
    ]},
    {"compound": "C[C@H]1CN(c2nc(Nc3ccncc3)nc(NC3Cc4ccccc4C3)n2)CCN1", "values": [
      {"measurement": "IC50", "setting": "[1]", "value": 135, "unit": "nM"}
    ]}
  ]
}
